In brackets after ≈: the same amount, converted by molar mass. Several values for one entry are separate records, joined by “and”; a condition that tells them apart may be missing. Identical values can stand only once.
Legend:
[1] = cited from earlier work
Escherichia coli O157 = assay: Checkerboard growth inhibition assay, E. coli O157; format: cell-based; details: for FIC of the single component within the triple combination: Van+FZ+DOC at the lowest FICi point
Method: (§1) Each combination was performed in triplicate.
(§2) The interaction between two drugs was interpreted as synergistic if FICi was ≤0.5, indifferent if it was >0.5 and ≤4, and antagonistic if it was >4.
(§3) A growth inhibition assay was used where a series of concentrations of each antibacterial was applied combined with several concentrations of other two antibacterials (7 concentrations of Van, 8 of FZ and 9 of DOC). […] Starting from the highest concentrations, two-fold dilution series were assayed. E. coli cultures were seeded with ˜10^6 cells/mL and incubated overnight. Optical densities of each combination of concentrations were measured to assess growth and the inhibition relative to the no-antibiotic control were calculated. […] The synergistic interaction has been defined by the Fractional Inhibitory Concentration index (FICi); see the Definitions and Material and Methods sections. FICi represents the sum of the individual Fractional Inhibitory Concentrations (FIC). An FIC in turn is equal to the ratio of concentration that inhibits growth (>90%) in combination vs. alone. For pairwise combinations, the FICi below 0.5 (below 0.25 for each antibiotic) is considered synergistic; by extension for triple combination the FICi should be <0.75 (again below 0.25 for each antibiotic).

E. coli K12 = assay: Checkerboard / dose-response growth inhibition assay, E. coli K12; format: cell-based, Escherichia coli; details: for FIC of the single component within the triple combination: Van+FZ+DOC at the lowest FICi point; for growth inhibition at the concentrations of the time-kill assay: FZ 1.25 μg/ml, alone or in combination
Method: E. coli was grown in 2×YT medium (BD Difco) at 37° C. with shaking at 200 rpm. For preparation of exponential phase cells, fresh overnight culture was 100-fold diluted and incubated to reach the OD600nm of about 0.1-0.2. This cell suspension was then diluted to the desirable concentration depending on specific purposes.
as §1, §2, §3

E. coli [2] = assay: Growth inhibition of E. coli by vancomycin (strain not specified)
[3] = tested on: various Gram-negative bacteria; assay: Inhibition of various Gram-negative bacteria by vancomycin alone and in combination; format: cell-based
Method: as §1

E. coli [4] = details: cited from earlier work
Klebsiella pneumoniae = assay: Checkerboard growth inhibition assay, Klebsiella pneumoniae; format: cell-based; details: CM4 did not inhibit growth in the range used
Method: as §1, §2
Triple synergy is based on the pairwise synergies of the three antibacterials, FZ (a nitrofuran), DOC and Van. To start understanding the triple interaction, a series of experiments analysing pairwise combinations were carried out. […] In contrast, Klebsiella is susceptible to synergistic action of FZ (but not NF and NFZ) with DOC and is resistant to nitrofuran CM4.

[5] = with FZ and DOC, at the lowest FICi point

CN[C@H](CC(C)C)C(=O)N[C@H]1C(=O)N[C@@H](CC(N)=O)C(=O)N[C@H]2C(=O)N[C@H]3C(=O)N[C@H](C(=O)N[C@H](C(=O)O)c4cc(O)cc(O)c4-c4cc3ccc4O)[C@H](O)c3ccc(c(Cl)c3)Oc3cc2cc(c3O[C@@H]2O[C@H](CO)[C@@H](O)[C@H](O)[C@H]2O[C@H]2C[C@](C)(N)[C@H](O)[C@H](C)O2)Oc2ccc(cc2Cl)[C@H]1O [Van, vancomycin]
known nephrotoxic concentrations ([1]; depending on the mode and length of treatment): 30 µg/mL and 20 µg/mL
concentration considered below nephrotoxic level (sub-toxic) ([1]; recommended therapeutic concentration, 6-day treatment): below 20 μg/mL
concentration of Van required to inhibit, used alone (Escherichia coli O157; 90% growth inhibition): 250 µg/mL
FIC of the single component within the triple combination (Escherichia coli O157): 0.03125
concentration of Van required to inhibit, in triple combination (Escherichia coli O157; [5]): 16 µg/mL
concentration of Van required to inhibit, used alone (E. coli K12; 90% growth inhibition): 500 µg/mL
FIC of the single component within the triple combination (E. coli K12): 0.03125
growth inhibition at the concentrations of the time-kill assay (E. coli K12; strain BW25113, Van 125 μg/ml): sub-inhibitory
concentration of Van required to inhibit, in triple combination (E. coli K12; [5]): 20 µg/mL
concentration required for E. coli growth inhibition when used on its own (E. coli [2]): > 250 µg/mL
Van concentration in triple combination at several points in the graph (E. coli [2]; E. coli K12 and O157, with FZ and DOC): 16 µg/mL and 10 µg/mL
concentration of vancomycin required to inhibit, before lowering (alone) ([3]; some variation between strains): about 500 μg/mL
bactericidal concentration of vancomycin in the triple combination ([3]; with a nitrofuran and DOC): 15.6 µg/mL
MIC when used on its own (E. coli [4]): 250 µg/mL (≈ 173 µM)

O=C(NN=Cc1ccc([N+](=O)[O-])o1)c1ccco1 [CM4, N′-[(5-nitrofuran-2-yl)methylidene]furan-2-carbohydrazide]
concentration range in which growth was not inhibited (up to) (Klebsiella pneumoniae): > 256 µg/mL

O=C1OCCN1/N=C/c1ccc([N+](=O)[O-])o1 [FZ, 3-[(E)-(5-nitrofuran-2-yl)methylideneamino]-1,3-oxazolidin-2-one]
FIC of the single component within the triple combination (Escherichia coli O157): 0.0625
growth inhibition at the concentrations of the time-kill assay (E. coli K12; strain BW25113, Van 125 μg/ml): sub-inhibitory
growth inhibition at the concentrations of the time-kill assay (E. coli K12; strain K1508, DOC 2,500 μg/ml): sub-inhibitory

C[C@H](CCC(=O)[O-])[C@H]1CC[C@H]2[C@@H]3CC[C@@H]4C[C@H](O)CC[C@]4(C)[C@H]3C[C@H](O)[C@]12C.[Na+] [DOC, sodium; (4R)-4-[(3R,5R,8R,9S,10S,12S,13R,14S,17R)-3,12-dihydroxy-10,13-dimethyl-2,3,4,5,6,7,8,9,11,12,14,15,16,17-tetradecahydro-1H-cyclopenta[a]phenanthren-17-yl]pentanoate]
FIC of the single component within the triple combination (Escherichia coli O157): 0.03125
FIC of the single component within the triple combination (E. coli K12): 0.0625
growth inhibition at the concentrations of the time-kill assay (E. coli K12; strain K1508, DOC 2,500 μg/ml): sub-inhibitory

— patent publication US20210330645A1, “ANTIBACTERIAL COMBINATIONS” (priority 2018, published 2021)
